Measured values: patent US20030170829A1 (priority 2001, published 2003)
“Also recorded” adds a separate entry of the source. Read-outs that look alike come from different tables or passages of the source.

Assays:
[1] = system: AFDH
[2] = system: AFDH; format: biochemical, Anthracobia melaloma; conditions: for Relative activity (%): None = 100
[3] = system: AFDH; remark: listed apart in the source
[4] = substrate 100 μl, 12.79 μmol/ml
[5] = substrate 130 μl, 16.63 μmol/ml
[6] = substrate 160 μl, 20.46 μmol/ml
[7] = substrate 180 μl, 23.02 μmol/ml
[8] = substrate 200 μl, 25.58 μmol/ml
[9] = substrate 230 μl, 29.42 μmol/ml
[10] = substrate 260 μl, 33.25 μmol/ml
[11] = substrate 300 μl, 38.37 μmol/ml
[12] = substrate 400 μl, 51.16 μmol/ml
[13] = substrate 450 μl, 57.56 μmol/ml
[14] = substrate 480 μl, 61.39 μmol/ml
[15] = substrate 100 μl, 24.75 μmol/ml
[16] = substrate 120 μl, 29.69 μmol/ml
[17] = substrate 150 μl, 37.12 μmol/ml
[18] = substrate 170 μl, 42.07 μmol/ml
[19] = substrate 200 μl, 49.49 μmol/ml
[20] = substrate 250 μl, 61.86 μmol/ml
[21] = substrate 300 μl, 74.24 μmol/ml

O=C1CO[C@H](CO)[C@@H](O)[C@@H]1O [AF, 1,5-anhydro-D-fructose]
Km ([1]; read-out: apparent Km (concentration that yielded half of the maximum activity), substrate AF, pH 6.7, 22 °C): 12.6 mM
Activity units ([1]; substrate 5 μl, 0.64 μmol/ml): 39.33 units
OD263 ([1]; substrate 5 μl, 0.64 μmol/ml): 0.059
Activity units ([1]; substrate 10 μl, 1.28 μmol/ml): 62.67 units
OD263 ([1]; substrate 10 μl, 1.28 μmol/ml): 0.094
Activity units ([1]; substrate 20 μl, 2.56 μmol/ml): 101.33 units
OD263 ([1]; substrate 20 μl, 2.56 μmol/ml): 0.152
Activity units ([1]; substrate 30 μl, 3.84 μmol/ml): 182.67 units
OD263 ([1]; substrate 30 μl, 3.84 μmol/ml): 0.274
Activity units ([1]; substrate 40 μl, 5.12 μmol/ml): 210.67 units
OD263 ([1]; substrate 40 μl, 5.12 μmol/ml): 0.316
Activity units ([1]; substrate 50 μl, 6.40 μmol/ml): 218.67 units
OD263 ([1]; substrate 50 μl, 6.40 μmol/ml): 0.328
Activity units ([1]; substrate 60 μl, 0.46 μmol/ml): 256.00 units
OD263 ([1]; substrate 60 μl, 0.46 μmol/ml): 0.384
Activity units ([1]; substrate 70 μl, 8.95 μmol/ml): 327.33 units
OD263 ([1]; substrate 70 μl, 8.95 μmol/ml): 0.491
Activity units [1, 4]: 412.00 units
OD263 [1, 4]: 0.618
Activity units [1, 5]: 456.67 units
OD263 [1, 5]: 0.685
Activity units [1, 6]: 511.33 units
OD263 [1, 6]: 0.767
Activity units [1, 7]: 549.33 units
OD263 [1, 7]: 0.824
Activity units [1, 8]: 561.33 units
OD263 [1, 8]: 0.842
Activity units [1, 9]: 594.67 units
OD263 [1, 9]: 0.892
Activity units [1, 10]: 609.33 units
OD263 [1, 10]: 0.914
Activity units [1, 11]: 646.67 units
OD263 [1, 11]: 0.97
Activity units [1, 12]: 738.67 units
OD263 [1, 12]: 1.108
Activity units [1, 13]: 767.33 units
OD263 [1, 13]: 1.151
Activity units [1, 14]: 772.67 units
OD263 [1, 14]: 1.159
Vmax ([1]; substrate AF, pH 6.7, 22 °C): 769 units

[Ca+2].[Cl-].[Cl-] [CaCl2]
concentration found to increase the activity with a factor of two [2]: 10 mM
effect on AFDH activity [2]: increased
Activity units ([2]; effector 5 mM): 1245.0 units
OD263 ([2]; effector 5 mM): 0.747
Activity units ([2]; effector 10 mM): 1442.7 units
OD263 ([2]; effector 10 mM): 0.865
Activity units ([2]; effector 15 mM): 1455.0 units
OD263 ([2]; effector 15 mM): 0.873
Activity units ([2]; effector 20 mM): 1531.7 units
OD263 ([2]; effector 20 mM): 0.919
Activity units ([2]; effector 25 mM): 1561.7 units
OD263 ([2]; effector 25 mM): 0.937
Activity units ([2]; effector 30 mM): 1601.7 units
OD263 ([2]; effector 30 mM): 0.961
Activity units ([2]; effector 40 mM): 1473.3 units
OD263 ([2]; effector 40 mM): 0.884
Activity units ([2]; effector 50 mM): 1466.7 units
OD263 ([2]; effector 50 mM): 0.880

O=CC(=O)[C@@H](O)[C@H](O)[C@H](O)CO [D-glucosone]
Km ([3]; read-out: apparent Km (concentration that yielded half of the maximum activity), substrate D-glucosone, pH 6.7, 22 °C): 27.6 mM
Activity units ([3]; substrate 5 μl, 1.24 μmol/ml): 33.33 units
OD265 ([3]; substrate 5 μl, 1.24 μmol/ml): 0.050
Activity units ([3]; substrate 10 μl, 2.47 μmol/ml): 36.00 units
OD265 ([3]; substrate 10 μl, 2.47 μmol/ml): 0.054
Activity units ([3]; substrate 20 μl, 4.95 μmol/ml): 57.33 units
OD265 ([3]; substrate 20 μl, 4.95 μmol/ml): 0.086
Activity units ([3]; substrate 30 μl, 7.42 μmol/ml): 79.30 units
OD265 ([3]; substrate 30 μl, 7.42 μmol/ml): 0.119
Activity units ([3]; substrate 40 μl, 9.90 μmol/ml): 101.33 units
OD265 ([3]; substrate 40 μl, 9.90 μmol/ml): 0.152
Activity units ([3]; substrate 50 μl, 12.37 μmol/ml): 114.00 units
OD265 ([3]; substrate 50 μl, 12.37 μmol/ml): 0.171
Activity units ([3]; substrate 60 μl, 14.85 μmol/ml): 140.67 units
OD265 ([3]; substrate 60 μl, 14.85 μmol/ml): 0.211
Activity units ([3]; substrate 70 μl, 17.32 μmol/ml): 164.67 units
OD265 ([3]; substrate 70 μl, 17.32 μmol/ml): 0.247
Activity units ([3]; substrate 80 μl, 19.80 μmol/ml): 180.67 units
OD265 ([3]; substrate 80 μl, 19.80 μmol/ml): 0.271
Activity units ([3]; substrate 90 μl, 22.27 μmol/ml): 215.30 units
OD265 ([3]; substrate 90 μl, 22.27 μmol/ml): 0.323
Activity units [3, 15]: 230.67 units
OD265 [3, 15]: 0.346
Activity units [3, 16]: 262.67 units
OD265 [3, 16]: 0.379
Activity units [3, 17]: 310.20 units
OD265 [3, 17]: 0.394
Activity units [3, 18]: 352.62 units
OD265 [3, 18]: 0.529
Activity units [3, 19]: 394.62 units
OD265 [3, 19]: 0.592
Activity units [3, 20]: 407.33 units
OD265 [3, 20]: 0.611
Activity units [3, 21]: 414.67 units
OD265 [3, 21]: 0.622
Vmax ([3]; substrate D-glucosone, pH 6.7, 22 °C): 416 units

O[C@@H](CS)[C@@H](O)CS [DTT]
effect on AFDH activity [2]: inhibited
Relative activity (%) ([2]; inhibitor 10 mM): 57%

O=C(O)CN(CCN(CC(=O)O)CC(=O)O)CC(=O)O [EDTA]
effect on AFDH activity [2]: inhibited
Relative activity (%) ([2]; inhibitor 10 mM): 59%
Relative activity (%) ([2]; inhibitor 50 mM): 16%

[Cl-].[Cl-].[Mg+2] [MgCl2]
concentration found to increase the activity with a factor of two [2]: 25 mM
effect on AFDH activity [2]: increased
Activity units ([2]; effector 5 mM): 1053.3 units
OD263 ([2]; effector 5 mM): 0.632
Activity units ([2]; effector 10 mM): 1228.3 units
OD263 ([2]; effector 10 mM): 0.737
Activity units ([2]; effector 15 mM): 1255.0 units
OD263 ([2]; effector 15 mM): 0.753
Activity units ([2]; effector 20 mM): 1295.0 units
OD263 ([2]; effector 20 mM): 0.777
Activity units ([2]; effector 25 mM): 1316.7 units
OD263 ([2]; effector 25 mM): 0.790
Activity units ([2]; effector 30 mM): 1291.7 units
OD263 ([2]; effector 30 mM): 0.775
Activity units ([2]; effector 40 mM): 1243.3 units
OD263 ([2]; effector 40 mM): 0.746
Activity units ([2]; effector 50 mM): 1186.7 units
OD263 ([2]; effector 50 mM): 0.712

[Cl-].[Na+] [NaCl]
concentration found to increase the activity with a factor of two [2]: 50 mM
Activity units ([2]; NaCl 0.05 M): 1263.3 units
OD263 ([2]; NaCl 0.05 M): 0.758
Activity units ([2]; NaCl 0.1 M): 1348.3 units
OD263 ([2]; NaCl 0.1 M): 0.809
Activity units ([2]; NaCl 0.15 M): 1381.7 units
OD263 ([2]; NaCl 0.15 M): 0.829
Activity units ([2]; NaCl 0.2 M): 1415.0 units
OD263 ([2]; NaCl 0.2 M): 0.849
Activity units ([2]; NaCl 0.3 M): 1453.3 units
OD263 ([2]; NaCl 0.3 M): 0.872
Activity units ([2]; NaCl 0.4 M): 1338.3 units
OD263 ([2]; NaCl 0.4 M): 0.803
Activity units ([2]; NaCl 0.5 M): 1301.7 units
OD263 ([2]; NaCl 0.5 M): 0.781
Activity units ([2]; NaCl 0.6 M): 1286.7 units
OD263 ([2]; NaCl 0.6 M): 0.772
Activity units ([2]; NaCl 0.7 M): 1271.7 units
OD263 ([2]; NaCl 0.7 M): 0.763
Activity units ([2]; NaCl 0.8 M): 1223.3 units
OD263 ([2]; NaCl 0.8 M): 0.734
Activity units ([2]; NaCl 0.9 M): 1141.7 units
OD263 ([2]; NaCl 0.9 M): 0.685
effect on AFDH activity ([2]; listed as Na^+): increased; also recorded: positive effect

[Cl-].[Cl-].[Zn+2] [ZnCl2]
effect on AFDH activity [2]: inhibited
Activity units ([2]; effector 5 mM): 551.7 units
OD263 ([2]; effector 5 mM): 0.331
Activity units ([2]; effector 10 mM): 435.0 units
OD263 ([2]; effector 10 mM): 0.261
Activity units ([2]; effector 15 mM): 315.0 units
OD263 ([2]; effector 15 mM): 0.189
Activity units ([2]; effector 20 mM): 241.7 units
OD263 ([2]; effector 20 mM): 0.145
Activity units ([2]; effector 25 mM): 220.0 units
OD263 ([2]; effector 25 mM): 0.132
Activity units ([2]; effector 30 mM): 201.7 units
OD263 ([2]; effector 30 mM): 0.121
Activity units ([2]; effector 40 mM): 158.3 units
OD263 ([2]; effector 40 mM): 0.095
Activity units ([2]; effector 50 mM): 135.0 units
OD263 ([2]; effector 50 mM): 0.081
Relative activity (%) ([2]; inhibitor 10 mM): 52.52%
